# Target: hNaV1.7 (Homo sapiens (Human), UniProt Q15858)
# Assay: Competitive binding of tritiated compound to membranes from cells expressing hNav1.7 and the β1 subunit
# Settings: 100 pM [3H]compound, 18 h, room temperature; read-out: NaV1.7 395 Membrane Binding IC50
# Procedure: Tritiated compound binding to membranes isolated from cells that heterologously express hNav1.7 and the β1 subunit
# Preparation of membranes containing recombinantly expressed sodium channels: Frozen recombinant cell pellets were thawed on ice and diluted to 4 times the cell pellet weight with ice cold 50 mM Tris HCl, pH 7.4 buffer. The cell suspensions were homogenized on ice using a motorized glass dounce homogeniser. Homogenates were further diluted 8.4 times with ice cold 50 mM Tris HCl, pH 7.4 buffer and then centrifuged at 200×g at 4° C. for 15 min. The supernatants were collected and centrifuged at 10000×g at 4° C. for 50 min. The pellets were then re-suspended in 100 mM NaCl, 20 mM Tris HCl, pH 7.4 buffer containing 1% v/v protease inhibitors (Calbiochem) and re-homogenized on ice. The homogenized membranes were then processed through a syringe equipped with a 26 gauge needle. Protein concentrations were determined by Bradford Assay and the membranes were stored at −80° C.
# Radioligand Binding Studies: Saturation experiments. A representative compound of formula (I) was tritiated. Three tritiums were incorporated in place of methyl hydrogens to generate [^3H]compound. Binding of this radioligand was performed in 5 mL borosilicate glass test tubes at room temperature. Binding was initiated by adding membranes to increasing concentrations of [^3H]compound in 100 mM NaCl, 20 mM Tris HCl, pH 7.4 buffer containing 0.01% w/v bovine serum albumin (BSA) for 18 h. Non-specific binding was determined in the presence of 1 μM unlabelled compound. After 18 h, the reactants were filtered through GF/C glass fiber filters presoaked in 0.5% w/v polyethylene imine. Filters were washed with 15 mL ice cold 100 mM NaCl, 20 mM Tris HCl, pH 7.4 buffer containing 0.25% BSA to separate bound from free ligand. [^3H]compound bound to filters was quantified by liquid scintillation counting.
# Competitive binding experiments. Binding reactions were performed in 96-well polypropylene plates at room temperature for 18 h. In 360 μL, membranes were incubated with 100 pM [^3H]compound and increasing concentrations of Test Compound. Non-specific binding was defined in the presence of 1 μM unlabelled compound. Reactions were transferred and filtered through 96-well glass fiber/C filter plates presoaked with 0.5% polyethylene imine. The filtered reactions were washed 5 times with 200 μL ice cold buffer containing 0.25% BSA. Bound radioactivity was determined by liquid scintillation counting.
# Data Analysis: For saturation experiments, non-specific binding was subtracted from total binding to provide specific binding and these values were recalculated in terms of pmol ligand bound per mg protein. Saturation curves were constructed and dissociation constants were calculated using the single site ligand binding model: Beq=(Bmax*X)/(X+Kd), where Beq is the amount of ligand bound at equilibrium, Bmax is the maximum receptor density, Kd is the dissociation constant for the ligand, and X is the free ligand concentration. For competition studies percent inhibition was determined and IC50 values were calculated using a 4 parameter logistic model (% inhibition=(A+((B−A)/(1+((x/C)^D)))) using XLfit, where A and B are the maximal and minimum inhibition respectively, C is the IC50 concentration and D is the (Hill) slope.
# Sequence of hNaV1.7 (Q15858 whole entry, looked up): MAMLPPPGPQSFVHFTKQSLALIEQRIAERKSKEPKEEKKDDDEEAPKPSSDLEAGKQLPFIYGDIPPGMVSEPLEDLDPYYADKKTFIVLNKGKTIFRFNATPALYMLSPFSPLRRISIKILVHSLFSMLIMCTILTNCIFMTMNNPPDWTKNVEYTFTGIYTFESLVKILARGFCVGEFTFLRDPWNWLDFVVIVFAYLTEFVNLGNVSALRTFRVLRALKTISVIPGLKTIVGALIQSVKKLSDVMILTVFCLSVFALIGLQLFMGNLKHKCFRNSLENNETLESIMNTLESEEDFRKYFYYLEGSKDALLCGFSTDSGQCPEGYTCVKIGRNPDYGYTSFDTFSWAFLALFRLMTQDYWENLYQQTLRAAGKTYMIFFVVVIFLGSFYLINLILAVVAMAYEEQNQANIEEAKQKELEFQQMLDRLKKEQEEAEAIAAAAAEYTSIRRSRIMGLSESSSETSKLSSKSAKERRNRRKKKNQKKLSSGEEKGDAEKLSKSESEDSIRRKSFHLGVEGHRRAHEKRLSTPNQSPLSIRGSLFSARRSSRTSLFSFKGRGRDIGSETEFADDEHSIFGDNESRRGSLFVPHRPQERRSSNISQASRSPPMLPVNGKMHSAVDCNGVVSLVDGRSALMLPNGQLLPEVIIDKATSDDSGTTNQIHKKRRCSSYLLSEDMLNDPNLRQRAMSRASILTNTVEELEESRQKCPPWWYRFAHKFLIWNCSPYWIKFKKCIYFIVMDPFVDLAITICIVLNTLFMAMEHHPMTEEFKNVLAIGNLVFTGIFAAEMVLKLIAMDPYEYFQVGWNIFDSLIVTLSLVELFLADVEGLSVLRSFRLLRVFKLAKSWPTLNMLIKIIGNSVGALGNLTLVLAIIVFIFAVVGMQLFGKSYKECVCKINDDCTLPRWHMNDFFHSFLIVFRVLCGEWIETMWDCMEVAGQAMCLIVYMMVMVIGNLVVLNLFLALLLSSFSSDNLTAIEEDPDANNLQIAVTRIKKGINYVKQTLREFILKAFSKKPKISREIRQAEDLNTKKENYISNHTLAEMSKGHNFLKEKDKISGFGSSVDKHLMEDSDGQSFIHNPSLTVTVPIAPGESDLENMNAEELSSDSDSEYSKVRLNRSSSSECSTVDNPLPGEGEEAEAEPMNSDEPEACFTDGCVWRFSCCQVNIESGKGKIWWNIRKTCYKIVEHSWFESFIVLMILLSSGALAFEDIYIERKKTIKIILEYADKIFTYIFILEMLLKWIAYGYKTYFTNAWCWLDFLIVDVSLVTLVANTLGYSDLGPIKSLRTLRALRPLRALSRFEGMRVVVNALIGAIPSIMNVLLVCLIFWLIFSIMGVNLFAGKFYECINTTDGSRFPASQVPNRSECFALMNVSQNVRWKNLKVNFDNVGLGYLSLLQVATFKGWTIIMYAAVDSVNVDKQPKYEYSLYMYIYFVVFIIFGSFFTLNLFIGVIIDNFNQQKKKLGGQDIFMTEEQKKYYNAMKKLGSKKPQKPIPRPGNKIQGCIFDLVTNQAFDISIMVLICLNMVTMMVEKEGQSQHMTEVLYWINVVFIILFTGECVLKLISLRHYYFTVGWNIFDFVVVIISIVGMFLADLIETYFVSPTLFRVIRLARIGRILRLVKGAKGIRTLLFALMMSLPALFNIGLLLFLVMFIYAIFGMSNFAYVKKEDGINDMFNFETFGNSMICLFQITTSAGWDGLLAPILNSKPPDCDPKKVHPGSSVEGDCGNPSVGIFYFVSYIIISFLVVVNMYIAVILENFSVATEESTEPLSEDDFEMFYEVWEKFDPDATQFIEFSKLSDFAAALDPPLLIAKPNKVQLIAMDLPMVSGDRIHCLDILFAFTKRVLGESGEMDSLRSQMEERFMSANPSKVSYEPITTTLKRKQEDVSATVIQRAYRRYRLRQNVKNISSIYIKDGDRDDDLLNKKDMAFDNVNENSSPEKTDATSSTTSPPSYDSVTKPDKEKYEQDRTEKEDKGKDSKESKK
# Sequence of hNaV1.7 (Q07699 whole entry partner, looked up): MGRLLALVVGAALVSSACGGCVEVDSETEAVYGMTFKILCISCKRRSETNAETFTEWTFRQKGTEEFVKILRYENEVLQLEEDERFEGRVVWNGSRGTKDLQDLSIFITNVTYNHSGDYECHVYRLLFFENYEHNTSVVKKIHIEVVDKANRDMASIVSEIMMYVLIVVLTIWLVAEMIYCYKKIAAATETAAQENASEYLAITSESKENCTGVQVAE
row,Structure (SMILES),IC50 [nM]
1,"CCCCN(CCCC)S(=O)(=O)NC(=O)c1cc(Cl)c(Oc2cnc(OCC(C)C)c(Cl)c2)cc1F [Preparation 13, 5-chloro-4-((5-chloro-6-isobutoxypyridin-3-yl)oxy)-N-(N,N-dibutylsulfamoyl)-2-fluorobenzamide]",3640
2,"CC(C)COc1ncc(Oc2cc(F)c(C(=O)NS(=O)(=O)NCc3ccccc3)cc2Cl)cc1Cl [Preparation 18, N-(N-benzyl-sulfamoyl)-5-chloro-4-((5-chloro-6-isobutoxy-pyridin-3-yl)oxy)-2-fluorobenzamide]",4180
3,"CC(C)COc1ncc(Oc2cc(F)c(C(=O)NS(=O)(=O)N(C)Cc3ccccc3)cc2Cl)cc1Cl [Preparation 19, N-(N-benzyl-N-methylsulfamoyl)-5-chloro-4-((5-chloro-6-isobutoxypyridin-3-yl)oxy)-2-fluoro-benzamide]",4440
4,"CC(C)COc1ncc(Oc2cc(F)c(C(=O)NS(=O)(=O)NCc3cccnc3)cc2Cl)cc1Cl [Preparation 22, 5-chloro-4-((5-chloro-6-isobutoxypyridin-3-yl)oxy)-2-fluoro-N-(N-(pyridin-3-ylmethyl)sulfamoyl) benzamide 2,2,2-trifluoroacetate]",3580
5,"CC(C)COc1ncc(Oc2cc(F)c(C(=O)NS(=O)(=O)NC(=O)OC(C)(C)C)cc2Cl)cc1Cl [Preparation 29, tert-butyl N-(5-chloro-4-((5-chloro-6-isobutoxy-pyridin-3-yl)oxy)-2-fluorobenzoyl) sulfamoylcarbamate]",905
6,"CN(C)S(=O)(=O)NC(=O)c1cc(F)c(Oc2ccc(OC(F)(F)F)c(Cl)c2)cc1F [Preparation 31, 4-(3-chloro-4-(tri-fluoromethoxy)phenoxy)-N-(N,N-dimethylsulfamoyl)-2,5-difluoro-benzamide]",860
7,"CNS(=O)(=O)NC(=O)c1cc(Cl)c(Oc2cnc(OCC(F)(F)C(F)F)c(Cl)c2)cc1F [Preparation 33, 5-chloro-4-((5-chloro-6-(2,2,3,3-tetrafluoro-propoxy)pyridin-3-yl)oxy)-2-fluoro-N-(N-methylsulfamoyl) benzamide]",22.8
8,"NS(=O)(=O)NC(=O)c1cc(Cl)c(Oc2cnc(Cl)c(Cl)c2)cc1F [Preparation 34, 5-chloro-4-((5,6-dichloropyridin-3-yl)oxy)-2-fluoro-N-sulfamoylbenzamide]",4680
9,"CN(C)S(=O)(=O)NC(=O)c1cc(Cl)c(Oc2cnc(Cl)c(Cl)c2)cc1F [Preparation 35, 5-chloro-4-((5,6-dichloropyridin-3-yl)oxy)-N-(N,N-dimethylsulfamoyl)-2-fluorobenzamide]",665
10,"NS(=O)(=O)NC(=O)c1cc(Cl)c(COc2cnc(OCC(F)(F)C(F)F)c(Cl)c2)cc1F [Preparation 36, 5-chloro-4-(((5-chloro-6-(2,2,3,3-tetrafluoropropoxy)pyridin-3-yl)oxy)methyl)-2-fluoro-N-sulfamoylbenzamide]",460
11,"NS(=O)(=O)NC(=O)c1cc(Cl)c(Oc2cnc(OCC(F)(F)C(F)F)c(Cl)c2)cc1F [Preparation 37, 5-chloro-4-((5-chloro-6-(2,2,3,3-tetrafluoro-propoxy)pyridin-3-yl)oxy)-2-fluoro-N-sulfamoylbenzamide]",171
12,"CNS(=O)(=O)NC(=O)c1cc(Cl)c(Oc2cnc(Cl)c(Cl)c2)cc1F [Preparation 38, 5-chloro-4-((5,6-dichloropyridin-3-yl)oxy)-2-fluoro-N-(N-methyl-sulfamoyl)benzamide]",628
13,"CN(C)S(=O)(=O)NC(=O)c1cc(Cl)c(COc2cnc(OCC(F)(F)C(F)F)c(Cl)c2)cc1F [Preparation 39, 5-chloro-4-(((5-chloro-6-(2,2,3,3-tetrafluoro-propoxy)pyridin-3-yl)oxy)methyl)-N-(N,N-dimethyl-sulfamoyl)-2-fluoro-benzamide]",216
14,"CC(C)COc1ncc(Oc2cc(F)c(C(=O)NS(=O)(=O)N(C)C)cc2Cl)cc1C(F)(F)F [Preparation 40, 5-chloro-N-(N,N-dimethylsulfamoyl)-2-fluoro-4-((6-iso-butoxy-5-(trifluoro-methyl)pyridin-3-yl)oxy)benzamide]",71
15,"CC(C)COc1ncc(Oc2cc(F)c(C(=O)NS(=O)(=O)N3CCN(C(=O)OC(C)(C)C)CC3)cc2Cl)cc1Cl [Preparation 41, tert-butyl 4-(N-(5-chloro-4-((5-chloro-6-isobutoxy-pyridin-3-yl)oxy)-2-fluorobenzoyl)sulfamoyl)piperazine-1-carboxylate]",3800
16,"CC(C)COc1ncc(Oc2cc(F)c(C(=O)NS(=O)(=O)N3CCNCC3)cc2Cl)cc1Cl [Preparation 42, 5-chloro-4-((5-chloro-6-isobutoxypyridin-3-yl)oxy)-2-fluoro-N-(piperazin-1-ylsulfonyl)benzamide]",856
17,"CN(C)S(=O)(=O)NC(=O)c1cc(Cl)c(Oc2ccc(C#N)cc2)cc1F [Preparation 43, 5-chloro-4-(4-cyano-phenoxy)-N-(N,N-dimethylsulfamoyl)-2-fluorobenzamide]",10000
18,"CN(C)S(=O)(=O)NC(=O)c1cc(Cl)c(Oc2ccc(-c3nccs3)cc2)cc1F [Preparation 44, 5-chloro-N-(N,N-dimethylsulfamoyl)-2-fluoro-4-(4-(thiazol-2-yl)phenoxy) benzamide]",869
19,"O=C(NS(=O)(=O)NC1CCC1)c1cc(Cl)c(Oc2ccc(OC(F)(F)F)c(Cl)c2)cc1F [Preparation 45, 5-chloro-4-(3-chloro-4-(trifluoromethoxy)phenoxy)-N-(N-cyclobutylsulfamoyl)-2-fluorobenzamide]",108
20,"CC(C)COc1ncc(Oc2cc(F)c(C(=O)NS(=O)(=O)N3CCC3)cc2Cl)cc1Cl [Preparation 46, N-(azetidin-1-ylsulfonyl)-5-chloro-4-((5-chloro-6-iso-butoxypyridin-3-yl)oxy)-2-fluorobenzamide]",9.2
21,"CN(C)S(=O)(=O)NC(=O)c1cc(Cl)c(Oc2ccc3ccccc3c2)cc1F [Preparation 47, 5-chloro-N-(N,N-dimethylsulfamoyl)-2-fluoro-4-(naphthalen-2-yloxy)benzamide]",4070
22,"NS(=O)(=O)NC(=O)c1cc(Cl)c(Oc2ccc3ccccc3c2)cc1F [Preparation 48, 5-chloro-2-fluoro-4-(naphthalen-2-yloxy)-N-sulfamoyl-benzamide]",138
23,"CN(C)S(=O)(=O)NC(=O)c1cc(Cl)c(Oc2ccc(F)c(F)c2)cc1F [Preparation 49, 5-chloro-4-(3,4-difluorophenoxy)-N-(N,N-dimethyl-sulfamoyl)-2-fluorobenzamide]",3470
24,"NS(=O)(=O)NC(=O)c1cc(Cl)c(Oc2ccc(F)c(F)c2)cc1F [Preparation 50, 5-chloro-4-(3,4-difluorophenoxy)-2-fluoro-N-sulfamoylbenzamide]",656
25,"CN(C)S(=O)(=O)NC(=O)c1cc(Cl)c(Oc2cccc3ccccc23)cc1F [Preparation 52, 5-chloro-N-(N,N-dimethylsulfamoyl)-2-fluoro-4-(naphthalen-1-yloxy)benzamide]",5200
26,"NS(=O)(=O)NC(=O)c1cc(Cl)c(Oc2cccc3ccccc23)cc1F [Preparation 53, 5-chloro-2-fluoro-4-(naphthalen-1-yloxy)-N-sulfamoylbenzamide]",23000
27,"CN(C)S(=O)(=O)NC(=O)c1cc(Cl)c(Oc2cccc3[nH]ccc23)cc1F [Preparation 55, 4-((1H-indol-4-yl)oxy)-5-chloro-N-(N,N-dimethyl-sulfamoyl)-2-fluoro-benzamide]",20000
28,"CN(C)S(=O)(=O)NC(=O)c1cc(Cl)c(Oc2ccc3cc[nH]c3c2)cc1F [Preparation 56, 4-((1H-indol-6-yl)oxy)-5-chloro-N-(N,N-dimethyl-sulfamoyl)-2-fluoro-benzamide]",990
29,"COc1ccc(CCOc2cc(F)c(C(=O)NS(=O)(=O)N(C)C)cc2Cl)cc1 [Preparation 57, 5-chloro-N-(N,N-dimethylsulfamoyl)-2-fluoro-4-(4-methoxy-phenethoxy)benzamide]",2400
30,"CN(C)S(=O)(=O)NC(=O)c1cc(Cl)c(OCCc2ccccc2)cc1F [Preparation 58, 5-chloro-N-(N,N-dimethylsulfamoyl)-2-fluoro-4-phenethoxy-benzamide]",1300

# Source: US10071957B2, “N-substituted benzamides and methods of use thereof” (GENENTECH, INC., priority 2012, dated 2018)
